Usually IC50 stands for the concentration that gives 50% inhibition.

The test system of experiment [1] is H1650 lung cancer cells. Set-up: % @ 20 μM: scale not given here. The note with it: cited from earlier work; for IC50: examples up to number 80 taken from PCT WO2013/025882, read-out: IC50 (μM), Cell Viability Data.
In the next experiment the test system is EGFR-L858R/CCSP mice. Briefly: In vivo lung cancer model (MRI tumor volume). The note with it: 100 mg/kg i.p. every other day for two weeks; DMSO control 20% increase. The procedure:
The in vivo lung cancer model is described in Politi et al., Genes Dev. Jun. 1, 2006 20: 1496-1510. EGFR-L858R/CCSP mice were fed doxycycline-impregnanted food pellets to induce tumor formation. After 8-12 weeks, mice were imaged in a Bruker 4.7T Biospec scanner to confirm lung nodule development. After tumor confirmation, the compound of Example 30 was prepared in DMSO (Sigma) and administered i.p. at 100 mg/kg every other day for two weeks. After treatment, the mice were re-imaged by MRI, and pre-treatment and post-treatment lung volumes were calculated by visible lung opacity present in each axial image using Osirix 4.1.1. DMSO control animals show a 20% increase in tumor volume over two week treatment period. Animals treated with the compound of Example 30 show a 60% decrease in tumor volume over two week treatment period.

Experiment [2] deals with BALB/c hearts transplanted into fully allogeneic B6 recipients. Briefly: Heart allograft survival. As to conditions: 100 mg/kg i.p.; n=4; untreated rejected by day 8; p<0.05 vs control. The class given is in vivo, mice. The procedure: To test for a clinically relevant in vivo effect, BALB/c hearts were transplanted into fully allogeneic B6 recipients. While untreated animals rejected their grafts by day 8 n=4, the grafts in the mice treated with 100 mg/kg i.p. of Example 30 lasted 18 days n=4, p<0.05 vs control, a statistically and clinically significant effect.

Experiment [3] concerns H1650 lung cancer cells. Briefly: Cell viability assay (MTT, IC50 determination). As to conditions: Homo sapiens, NCI-H1650, 48 h after drug treatment, examples 100-103. It is filed as cell-based. The procedure:
Cell Viability Assays (IC50 Determination)
Cell viability assays were performed according to Denizot, F. and R. Lang, Journal of Immunological Methods, 1986. 89(22): p. 271-277. H1650 lung cancer cells were plated at 150,000 cells per well in a 12 well plate. Twenty-four hours after plating, cells were treated as described with increasing concentrations of drug and control. Forty-eight hours after drug treatment, cells were treated with 100 μL of 3-(4,5-Dimethylthiazol-2-yl)-2,5-diphenyltetrazolium bromide (MTT) and incubated for 2 hours at 37 C. The MTT solution was subsequently replaced with 300 μl of n-propyl alcohol and re-aliquoted to a 96 well plates. Spectrophotometric analysis of each solution was performed using a 96 well plate reader at 600 nm in triplicate. The examples up to number 80 in Table 1 below are taken from PCT WO2013/025882, published 21 Feb. 2013. They illustrate biological activities of compounds that share a tricyclic scaffold.

The test system of the next experiment is CD4 naïve cells. The experiment in a line: Induction of Treg (Foxp3+) from naïve CD4 T cells. It is filed as cell-based. As to conditions: control compounds, concentration not given; 3 days. The procedure: Example 30 has been tested for its ability to induce Treg from naïve CD4 T cells. […] Fifty thousand CD4 naïve cells (CD62Lhi,CD25 low, CD4 positive) were incubated with 2 ng/mL TGFβ, 1 ug/mL anti-CD3, 100 ng/mL IL-2, 50000 APCs per well and the compounds 10 μM, 5 μM and 2.5 μM concentrations. The cells were incubated for 3 days and then stained for CD4 and Foxp3 expression. Results were expressed as fold increase over the % induced in control (DMSO) wells (typically 20-25% Foxp3+). AKTi, a small molecule AKT inhibitor, was used as a positive control; it induced about a 4-fold increase. […] The effects of Example 30 on iTreg induction are amplified as the TGFβ concentration decreases.

Where two headings read alike, the source gives them in different places.

For `O=S(=O)(N[C@H]1CCC[C@@H](N2c3ccccc3CCc3ccccc32)C1)c1ccc(OC(F)(F)F)cc1` (relative stereo) [Example 73 cis, cis-N-(3-(10,11-dihydro-5H-dibenzo[b,f]azepin-5-yl)cyclohexyl)-4-(trifluoromethoxy)benzenesulfonamide], the IC50 with H1650 lung cancer cells [1] (MTT, 48 h after drug treatment) is 5 µM.

Take `O=S(=O)(N[C@H]1CCC[C@H](N2c3ccccc3CCc3ccccc32)C1)c1ccc(OC(F)(F)F)cc1` (relative stereo) [Example 73 trans, trans-N-(3-(10,11-dihydro-5H-dibenzo[b,f]azepin-5-yl)cyclohexyl)-4-(trifluoromethoxy)benzenesulfonamide]: the IC50 in the experiment on H1650 lung cancer cells [1] (MTT, 48 h after drug treatment) is 15 µM.

For `O=S(=O)(NCCCN1c2ccccc2CCc2ccc(Cl)cc21)c1cc(F)cc(F)c1` [Example 13, N-(3-(3-chloro-10,11-dihydro-5H-dibenzo[b,f]azepin-5-yl)propyl)-3,5-difluorobenzenesulfonamide], the IC50 with H1650 lung cancer cells [1] (MTT, 48 h after drug treatment) is 18 µM.

Consider `Cc1ccc(S(=O)(=O)NCCN2c3ccccc3Sc3ccc(Cl)cc32)cc1` [Example 18, N-(2-(2-chloro-10H-phenothiazin-10-yl)pethyl)4-methylbenzenesulfonamide], for which, in the experiment on H1650 lung cancer cells [1] (MTT, 48 h after drug treatment), the IC50 was 24.4 µM.

With `O=S(=O)(NCCCN1c2ccccc2CCc2ccc(Cl)cc21)c1ccc(Cl)cc1F` [Example 28, N-(3-(3-chloro-10,11-dihydro-5H-dibenzo[b,f]azepin-5-yl)propyl)-4-chloro-2-fluorobenzenesulfonamide], the “IC50 (μM), Cell Viability Data” value in the experiment with H1650 lung cancer cells [1] (MTT, 48 h after drug treatment, examples up to number 80 taken from PCT WO2013/025882) is listed as “INACTIVE”.

On to `O=S(=O)(NCCCN1c2ccccc2CCc2ccc(Cl)cc21)c1ccc(OC(F)(F)F)cc1` [Example 30, N-(3-(3-chloro-10,11-dihydro-5H-dibenzo[b,f]azepin-5-yl)propyl)-4-(trifluoromethoxy)benzenesulfonamide], for which the “decrease in tumor volume over two week treatment period” value with EGFR-L858R/CCSP mice is 60%. Besides, the graft survival in experiment [2] stood at 18 days.

In the case of `O=S(=O)(NCCC=C1c2ccccc2Sc2ccccc21)c1ccc(OC(F)(F)F)cc1` [Example 50, N-(3-(9H-thioxanthen-9-ylidene)propyl)-4-(trifluoromethoxy)benzenesulfonamide], the IC50 in the experiment with H1650 lung cancer cells [1] (MTT, 48 h after drug treatment) was approximately 15 µM.

Consider `O=S(=O)(NCCCN1c2ccccc2CCc2ccc(Cl)cc21)c1cnc(Cl)c(Br)c1` [Example 63, 5-Bromo-6-chloro-N-(3-(3-chloro-10,11-dihydro-5H-dibenzo[b,f]azepin-5-yl)propyl)pyridine-3-sulfonamide], for which the “% @ 20 μM” value in the experiment with H1650 lung cancer cells [1] (20 μM, taken from PCT WO2013/025882) was 65% @ 20.

`O=S(=O)(NCCCN1c2ccccc2CCc2cccnc21)c1ccc(OC(F)(F)F)cc1` [Example 100, N-(3-(5H-Benzo[b]pyrido[3,2-f]azepin-11(6H)-yl)propyl)-4-(trifluoromethoxy)benzenesulfonamide] registered an IC50 in the experiment on H1650 lung cancer cells [3] of 20 µM.

`O=S(=O)(NCCCN1c2ccccc2CCc2cccnc21)c1ccc(Cl)cc1` [Example 101, N-(3-(5H-Benzo[b]pyrido[3,2-f]azepin-11(6H)-yl)propyl)-4-chlorobenzenesulfonamide] yielded an IC50 with H1650 lung cancer cells [3] of 25 µM.

For `O=S(=O)(NCCCN1c2ccccc2CCc2ncccc21)c1ccc(OC(F)(F)F)cc1` [Example 102, N-(3-(10,11-Dihydro-5H-benzo[b]pyrido[2,3-f]azepin-5-yl)propyl)-4-(trifluoromethoxy)benzenesulfonamide], it took 30 µM to reach half-maximal inhibition in the experiment on H1650 lung cancer cells [3] (IC50).

Turning to `O=S(=O)(NCCCN1c2ccccc2CCc2ncccc21)c1ccc(Cl)cc1` [Example 103, 4-Chloro-N-(3-(10,11-dihydro-5H-benzo[b]pyrido[2,3-f]azepin-5-yl)propyl)benzenesulfonamide], in the experiment with H1650 lung cancer cells [3], the IC50 was found to be 30 µM.

Consider `O=C(CCCN1CCC(O)(c2ccc(Cl)cc2)CC1)c1ccc(F)cc1` [Haloperidol], for which the “fold increase in iTreg over control (DMSO) wells” value in the experiment on CD4 naïve cells is given as “did not induce a statistically significant increase”.

The values are drawn from US9796717B2, “Tricyclic heterocycles as anticancer agents” (ICAHN SCHOOL OF MEDICINE AT MOUNT SINAI, priority 2013, dated 2017).
